Experimental findings from patent US10604514B2, “6-(5-membered heteroaryl)isoquinolin-3-yl carboxamides and preparation and use thereof” (Samumed, LLC, priority 2017, dated 2020) are described below.

Molecules are shown by their SMILES. Read-outs that look alike come from different tables or passages of the source.

The EC50 is the midpoint of the concentration-response curve.

For assay [1], the system named is LL29 cells (primary human fibroblasts derived from IPF patients), α-smooth muscle actin. Nature of the assay: Inhibition of fibrotic process: αSMA in TGF-β1-treated primary human fibroblasts from IPF patients (LL29 cells). Type of assay: cell-based. The conditions noted are these: Homo sapiens, Fibroblast; for EC50: 96 h, % αSMA-positive LL29 cells, TGF-β1 20 ng/mL, 4 days; for inhibition at 10 µM: read-out: percent inhibition at 10 μM. The essentials:
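Read-out is the percentage of αSMA-positive cells by high-content imaging, excluding SYTOX green-positive dead/apoptotic cells, normalized to TGF-β1-only wells on the same plate. LL29 cells were exposed for 4 days at 37 °C to 20 ng/mL TGF-β1 plus 11-point, 2-fold compound dilutions in 0.1% DMSO.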

The subject of assay [2] is Wnt activity (Sp5-Luc reporter in SW480 colon carcinoma cells). The assay is described as follows: Wnt activity screening assay (Sp5-Luc reporter gene assay). Type of assay: cell-based, human. The essentials:
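Compounds at 10 points (1:3 steps, top 10 μM, 0.1% DMSO final) were incubated 36 to 48 h at 37° C with stable Sp5-Luc SW480 reporter cells in 1% FBS medium. Luciferase luminescence was then read and expressed relative to DMSO-only cells. Four-parameter variable-slope fitting yielded EC50 values.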

For a further assay, the system named is IL-6. The assay is described as follows: IL-6 inhibition in LPS-stimulated human peripheral blood mononuclear cells (HTRF). Type of assay: cell-based. The conditions noted are these: Homo sapiens, PBMC; for EC50: IL-6, LPS-stimulated huPBMCs, HTRF; for inhibition at 10 µM: read-out: percent value in parentheses below EC50 >10. The essentials:
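EC50 from a 4-parameter fit of DMSO-normalized HTRF (665/620 nm) IL-6 signal, duplicates. Compound was added to fresh human PBMCs in 1% FBS RPMI for 2 h (top 10 μM, 3-fold, 0.25% DMSO) before 22 h stimulation with LPS at 50 ng/mL, 37 °C.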
(In TR-FRET formats the signal depends on donor and acceptor labels being close together.)

For assay [3], the system named is SW480 colon carcinoma cells. Nature of the assay: Cell viability assay (CellTiter-Glo) in SW480 cells.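 Further: SW480 cells stably carrying an Sp5-luciferase TCF/LEF reporter, luminescent ATP signal as viability measure, DMSO-treated cells as control.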 Type of assay: cell-based, human.
The target in another assay is DYRK1A kinase (Homo sapiens (Human), UniProt Q13627). Nature of the assay: DYRK1A kinase assay (Ser/Thr 18 peptide Z-lyte, FRET). The conditions noted are these: DYRK1A kinase; method text calls the value IC50.
In assay [4] the test system is Tau phosphorylation at Ser396 (pSer396), SH-SY5Y cells. Nature of the assay: Tau phosphorylation at Ser396 (pSer396) in SH-SY5Y cells, ELISA/western blot.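 Further: cell lysates probed for reduced Tau pSer396 via ELISA (colorimetric) or western blot (chemiluminescence), both with one shared pSer396 antibody, EC50 for lowering phosphorylation.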 Type of assay: cell-based, human. To be noted: Homo sapiens.
Another assay has as its target GSK3β kinase (Homo sapiens (Human), UniProt P49841). The assay is described as follows: GSK3β kinase assay (Ser/Thr 09 peptide Z-lyte, FRET).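 Further: Coumarin/fluorescein emission ratio converted to percent phosphorylation against unphosphorylated (0%) and phosphorylated (100%) controls, 1 h compound incubation at room temperature, 11-point threefold dilutions from 10 µM, run in duplicate.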 Type of assay: biochemical. To be noted: method text calls the value IC50.
[5] abbreviates: Homo sapiens; Sp5-Luc reporter, SW480 cells, 36 to 48 hours.
[6] abbreviates: Homo sapiens, 96 h; cell viability, SW480 cells, four days, CellTiter-Glo.
Where [7] appears, read: SH-SY5Y cells, overnight (16-18 h), read-out: pSer396 Tau EC50.
The mark [8] stands for this setting: Homo sapiens, SW480; read-out: percent inhibition at 10 μM.
The mark [9] stands for this setting: Homo sapiens, SW480, read-out: percent inhibition at 10 μM.

Chain of GSK3β kinase (P49841 whole entry): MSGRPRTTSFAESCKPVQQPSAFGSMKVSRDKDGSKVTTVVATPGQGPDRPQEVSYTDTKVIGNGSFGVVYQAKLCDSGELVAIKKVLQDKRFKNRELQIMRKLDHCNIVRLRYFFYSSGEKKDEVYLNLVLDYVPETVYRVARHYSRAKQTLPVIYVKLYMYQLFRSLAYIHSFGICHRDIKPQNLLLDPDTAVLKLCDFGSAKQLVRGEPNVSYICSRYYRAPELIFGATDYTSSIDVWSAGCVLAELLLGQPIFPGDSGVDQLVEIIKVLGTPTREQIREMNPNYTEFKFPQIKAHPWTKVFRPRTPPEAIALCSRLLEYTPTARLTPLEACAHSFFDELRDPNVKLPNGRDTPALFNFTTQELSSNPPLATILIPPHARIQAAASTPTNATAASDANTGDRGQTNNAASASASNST

Turning to `CN1CCN(C(=O)[C@H]2CC[C@H](C(=O)Nc3cc4cc(-c5cnn(C)c5)cc(F)c4cn3)CC2)CC1` [Compound 102, trans-N-(8-Fluoro-6-(1-methyl-1H-pyrazol-4-yl)isoquinolin-3-yl)-4-(4-methylpiperazine-1-carbonyl)cyclohexane-1-carboxamide], the concentration for a half-maximal effect (EC50) in assay [1] came to 2.4 µM; in assay [2] (setting [5]) it was 3.25 µM; in the assay with IL-6, 2.92 µM; in assay [3] (setting [6]) it was 3.03 µM; at DYRK1A kinase, 0.005 µM; in assay [4] (setting [7]) it was 2.6 µM. On GSK3β kinase, this compound had an EC50 of 0.434 µM.

Turning to `Cn1cc(-c2cc(F)c3cnc(NC(=O)[C@H]4CC[C@H](NCC(F)F)CC4)cc3c2)cn1` [Compound 103, trans-4-((2,2-Difluoroethyl)amino)-N-(8-fluoro-6-(1-methyl-1H-pyrazol-4-yl)isoquinolin-3-yl)cyclohexane-1-carboxamide], the EC50 in assay [1] turned out to be 0.392 µM; in assay [2] (setting [5]) it was 2.97 µM; in the assay with IL-6 it was 1.08 µM; in assay [3] (setting [6]), 6.08 µM; at DYRK1A kinase, 0.005 µM; in assay [4] (setting [7]), 1.3 µM. The compound further gave an EC50 on GSK3β kinase of 0.03 µM.

As to `Cc1ncc(-c2ccc3cnc(NC(=O)[C@H]4CC[C@H](NCC(F)F)CC4)cc3c2)o1` [Compound 104, trans-4-((2,2-Difluoroethyl)amino)-N-(6-(2-methyloxazol-5-yl)isoquinolin-3-yl)cyclohexane-1-carboxamide], the EC50 in assay [1] is 0.22 µM; in assay [2] (setting [5]), 3.6 µM; in the assay on IL-6, 1.14 µM; in assay [3] (setting [6]) it was 4.59 µM; on DYRK1A kinase, 0.008 µM; in assay [4] (setting [7]) it was 0.712 µM. The compound also returned an EC50 on GSK3β kinase of 0.149 µM.

`COCCN[C@H]1CC[C@H](C(=O)Nc2cc3cc(-c4cnn(C)c4)cc(F)c3cn2)CC1` [Compound 105, trans-N-(8-Fluoro-6-(1-methyl-1H-pyrazol-4-yl)isoquinolin-3-yl)-4-((2-methoxyethyl)amino)cyclohexane-1-carboxamide]: the EC50 in assay [1] was 0.812 µM; in assay [2] (setting [5]) it was more than 10 µM; in the assay with IL-6, 1.57 µM; in assay [3] (setting [6]), more than 10 µM; on DYRK1A kinase, 0.034 µM; in assay [4] (setting [7]), 2.2 µM. Besides, the half-maximal effective concentration (EC50) at GSK3β kinase worked out at 0.55 µM. The inhibition at 10 µM in assay [2] (setting [8]) turned out to be 15.8%; in assay [3] (setting [8]), 16.9%.

Regarding `Cc1nnc(-c2ccc3cnc(NC(=O)N4CCN(C)[C@H](C)C4)cc3c2)s1` [Compound 109, (R)-3,4-Dimethyl-N-(6-(5-methyl-1,3,4-thiadiazol-2-yl)isoquinolin-3-yl) piperazine-1-carboxamide], the EC50 was more than 10 µM in assay [1]; 7.81 µM in assay [2] (setting [5]); more than 10 µM in the assay with IL-6; 4.13 µM in assay [3] (setting [6]); 0.01 µM on DYRK1A kinase; 3.1 µM in assay [4] (setting [7]). The same compound returned an EC50 at GSK3β kinase of 0.175 µM. In addition, the inhibition at 10 µM in assay [1] stood at 19.5%; in the assay with IL-6 it was 6.9%.

Regarding `Cc1nnc(-c2ccc3cnc(NC(=O)N4CC5CCC(C4)N5C)cc3c2)s1` [Compound 110, 8-Methyl-N-(6-(5-methyl-1,3,4-thiadiazol-2-yl)isoquinolin-3-yl)-3,8-diazabicyclo[3.2.1]octane-3-carboxamide], the concentration giving a half-maximal response (EC50) was 1.97 µM in assay [1]; more than 10 µM in assay [2] (setting [5]); more than 10 µM in the assay on IL-6; more than 10 µM in assay [3] (setting [6]); 0.017 µM at DYRK1A kinase; 2.1 µM in assay [4] (SH-SY5Y, read-out: pSer396 Tau EC50 (μM)). Moreover, on GSK3β kinase, the EC50 worked out at 0.314 µM. In addition, the inhibition at 10 µM came out at 24.5% in assay [2] (setting [9]), 7% with IL-6 and 1.5% in assay [3] (setting [9]).

As for `Cc1nnc(-c2ccc3cnc(NC(=O)N4CCC(NC(CF)CF)CC4)cc3c2)s1` [Compound 121, 4-((1,3-Difluoropropan-2-yl)amino)-N-(6-(5-methyl-1,3,4-thiadiazol-2-yl)isoquinolin-3-yl)piperidine-1-carboxamide], the EC50 is more than 10 µM in assay [1]; 8.13 µM in assay [2] (setting [5]); more than 10 µM with IL-6; more than 10 µM in assay [3] (setting [6]); 0.035 µM on DYRK1A kinase; 0.953 µM in assay [4] (setting [7]). The same compound yielded an EC50 at GSK3β kinase of 0.082 µM. For the same compound, the results for the inhibition at 10 µM (in assay [1]; in the assay with IL-6; in assay [3] (setting [8])) were 10.4%, 5.4% and 36.5%, respectively.

Regarding `Cc1ncc(-c2ccc3cnc(NC(=O)[C@H]4CC[C@H](NC(CF)CF)CC4)cc3c2)o1` [Compound 124, trans-4-((1,3-difluoropropan-2-yl)amino)-N-(6-(2-methyloxazol-5-yl)isoquinolin-3-yl)cyclohexane-1-carboxamide], the EC50 in assay [1] is 0.451 µM; in assay [2] (setting [5]) it was 3.48 µM; in the assay with IL-6, 1.88 µM; in assay [3] (setting [6]), 1.02 µM; at DYRK1A kinase, 0.035 µM; in assay [4] (setting [7]), 0.612 µM. This compound also came in with an EC50 at GSK3β kinase of 0.217 µM.

As for `Cc1nnc(-c2ccc3cnc(NC(=O)N4CCn5ccnc5C4)cc3c2)s1` [Compound 125, N-(6-(5-Methyl-1,3,4-thiadiazol-2-yl)isoquinolin-3-yl)-5,6-dihydroimidazo [1,2-a]pyrazine-7(8H)-carboxamide], the EC50 in assay [1] worked out at 0.442 µM; in assay [2] (setting [5]) it was 1.24 µM; in the assay on IL-6, 9.27 µM; in assay [3] (setting [6]), 1.66 µM; at DYRK1A kinase, 0.004 µM; in assay [4] (setting [7]), 0.114 µM. Besides, a half-maximal effect at GSK3β kinase (EC50) was put at 0.005 µM.

`Cc1ncc(-c2ccc3cnc(NC(=O)N4CCn5ccnc5C4)cc3c2)o1` [Compound 126, N-(6-(2-Methyloxazol-5-yl)isoquinolin-3-yl)-5,6-dihydroimidazo[1,2-a]pyrazine-7(8H)-carboxamide]: the EC50 in assay [1] was 0.286 µM; in assay [2] (setting [5]) it was 1.18 µM; in the assay with IL-6, 0.363 µM; in assay [3] (setting [6]) it was 0.488 µM; at DYRK1A kinase, 0.005 µM; in assay [4] (setting [7]), 0.197 µM. Moreover, the midpoint of the response at GSK3β kinase, the EC50, lay at 0.024 µM.

On to `Cc1nnc(-c2ccc3cnc(NC(=O)N4CCC(N5CCOCC5)CC4)cc3c2)s1` [Compound 128, N-(6-(5-Methyl-1,3,4-thiadiazol-2-yl)isoquinolin-3-yl)-4-morpholinopiperidine-1-carboxamide], for which the EC50 is 6.63 µM in assay [1]; 3.18 µM in assay [2] (setting [5]); more than 10 µM in the assay on IL-6; 4.37 µM in assay [3] (setting [6]); 0.016 µM at DYRK1A kinase; 0.491 µM in assay [4] (setting [7]). Also, the EC50 on GSK3β kinase amounted to 0.025 µM. In addition, the inhibition at 10 µM in the assay on IL-6 stood at 8%.

In the case of `Cc1nnc(-c2ccc3cnc(NC(=O)N4CCC(N5CCN(C)CC5)CC4)cc3c2)s1` [Compound 129, N-(6-(5-methyl-1,3,4-thiadiazol-2-yl)isoquinolin-3-yl)-4-(4-methylpiperazin-1-yl)piperidine-1-carboxamide], the EC50 in assay [1] was 1.99 µM; in assay [2] (setting [5]), 1.81 µM; with IL-6, more than 10 µM; in assay [3] (setting [6]) it was 3.62 µM; on DYRK1A kinase it was 0.018 µM; in assay [4] (setting [7]), 0.656 µM. The EC50 on GSK3β kinase amounted to 0.09 µM. For the same compound, in the assay with IL-6, the inhibition at 10 µM came to 4.5%.

With `Cc1nnc(-c2ccc3cnc(NC(=O)N4CC[C@@H](NC(C)C)[C@H](F)C4)cc3c2)s1` [Compound 130, (3R,4R)-3-Fluoro-4-(isopropylamino)-N-(6-(5-methyl-1,3,4-thiadiazol-2-yl)isoquinolin-3-yl)piperidine-1-carboxamide], the EC50 in assay [1] was 3.3 µM; in assay [2] (setting [5]), 4.04 µM; in the assay with IL-6, more than 10 µM; in assay [3] (setting [6]), 4.21 µM; at DYRK1A kinase, 0.037 µM; in assay [4] (setting [7]), 1.5 µM. Further, on GSK3β kinase, a half-maximal response (EC50) required 0.142 µM. The inhibition at 10 µM with IL-6 came to 12.2%.

As to `Cc1nnc(-c2ccc3cnc(NC(=O)N4CC[C@@H](N)[C@H](F)C4)cc3c2)s1` [Compound 131, (3R,4R)-4-Amino-3-fluoro-N-(6-(5-methyl-1,3,4-thiadiazol-2-yl)isoquinolin-3-yl)piperidine-1-carboxamide], the EC50 in assay [1] is 1.93 µM; in assay [2] (setting [5]), 3.92 µM; in the assay on IL-6 it was 1.93 µM; in assay [3] (setting [6]) it was more than 10 µM; at DYRK1A kinase, 0.013 µM; in assay [4] (setting [7]), 0.337 µM. The compound further displayed an EC50 on GSK3β kinase of 0.006 µM. Further, the inhibition at 10 µM in assay [3] (setting [8]) was found to be 35.9%.
